Reference: US9938525B2, “Compositions and methods for selective delivery of oligonucleotide molecules to cell types” (nLife Therapeutics, S.L., priority 2012, dated 2018)
pIC50: −log10 of the molar value.

Assays:
Ataxin-I mRNA = assay: Knockdown of Ataxin I in Purkinje cells of the cerebellum (in situ hybridization, optical density); format: in vivo, mouse; settings: C57/B16 mice, intranasal 4 mg/kg/day for four consecutive days, 24 hours after last administration; ± s.e.m.
Source text: FIG. 5. Microphotographs of sagittal cerebellum sections labeled with a probe for Ataxin-1. A) and B) Arrows indicate the Purkinje cells layer, ML: molecular layer, GL: granular layer. A: example of animal treated with PBS, B: example of animal treated with 5-nonyloxytryptamine oxalate conjugated to a siRNA against mRNA for Ataxin-I (NP-1297). C: Quantification of optical density (ImageJ) in the Purkinje cells layer in arbitrary units (O.D. (a.u.)) normalized against PBS showing a significant decrease (48%±5 s.e.m.) in animals treated with NP-1297 (t test, *p<0.02).
5-HT1B receptors are expressed in the Purkinje cells of the cerebellum and using the agonist 5-nonyloxytryptamine oxalate for these receptors, conjugated to a siRNA against mRNA for Ataxin-I, we knockdown this protein only in Purkinje cells. Ataxin-1-siRNA sequence (Lee et al., Nat Neurosci 11, 1137-1139 (2008))
For this, five C57/B16 wild type mice were intranasally administered with the conjugated molecule at a concentration of 4 mg/kg/day for four consecutive days and five animals of the same strain were treated with PBS as a control; 24 hours after last administration animals were sacrificed and the brain was processed for in situ hybridization with colorimetric detection. A probe 45 nucleotides long complementary to mouse Ataxin-I mRNA and labeled with digoxigenin at both ends (5′ and 3′) was used. […]

5HT3 = biological target: T1, 5HT3 (Homo sapiens, UniProt P46098); assay: Binding to 5HT3: displacement of 3H-GR65630 in HEK-5HT3; settings: displacement of 3H-GR65630 (0.5 nM), HEK-5HT3, 3 ug of protein per well
T1 construct: expressed in transfected cells; host or cells: HEK (HEK-5HT3)
T1 sequence (P46098 24-478): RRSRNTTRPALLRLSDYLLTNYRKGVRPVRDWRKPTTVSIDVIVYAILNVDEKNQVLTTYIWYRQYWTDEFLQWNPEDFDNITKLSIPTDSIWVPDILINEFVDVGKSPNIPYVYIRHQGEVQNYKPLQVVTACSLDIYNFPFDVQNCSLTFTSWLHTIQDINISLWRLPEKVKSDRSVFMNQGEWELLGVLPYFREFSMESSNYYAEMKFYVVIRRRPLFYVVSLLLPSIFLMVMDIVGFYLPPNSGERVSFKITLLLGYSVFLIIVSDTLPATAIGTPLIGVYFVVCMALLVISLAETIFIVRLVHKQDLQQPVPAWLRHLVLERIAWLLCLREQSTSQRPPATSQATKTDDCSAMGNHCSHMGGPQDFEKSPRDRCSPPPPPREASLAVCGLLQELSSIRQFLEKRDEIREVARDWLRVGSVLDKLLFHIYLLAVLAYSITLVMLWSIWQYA
Method: FIG. 6. Binding of 1319 to 5HT3. Displacement of 3H-GR65630 (0.5 nM). Data are presented as mean±SD, n=4 from one experiment. Kd of GR65630 was determined from a saturation assay.
Displacement of 3H-GR65630 (0.5 nM) with increasing concentrations of 1319 (from 0.1 nM to 10 uM), Lerisetron-C6-acyl and not derivatized Lerisetron (from 0.1 nM to 30 uM), in HEK-5HT3: 3 ug of protein per well is shown in Table 11.

human 5HT1A receptor = biological target: T2, human 5HT1A receptor (Homo sapiens, UniProt P08908); assay: Binding to 5HT1A: displacement of 3H-8-OH-DPAT in CHO cells overexpressing human 5HT1A receptor
T2 construct: expressed in transfected cells; host or cells: CHO
T2 sequence (P08908 1-422): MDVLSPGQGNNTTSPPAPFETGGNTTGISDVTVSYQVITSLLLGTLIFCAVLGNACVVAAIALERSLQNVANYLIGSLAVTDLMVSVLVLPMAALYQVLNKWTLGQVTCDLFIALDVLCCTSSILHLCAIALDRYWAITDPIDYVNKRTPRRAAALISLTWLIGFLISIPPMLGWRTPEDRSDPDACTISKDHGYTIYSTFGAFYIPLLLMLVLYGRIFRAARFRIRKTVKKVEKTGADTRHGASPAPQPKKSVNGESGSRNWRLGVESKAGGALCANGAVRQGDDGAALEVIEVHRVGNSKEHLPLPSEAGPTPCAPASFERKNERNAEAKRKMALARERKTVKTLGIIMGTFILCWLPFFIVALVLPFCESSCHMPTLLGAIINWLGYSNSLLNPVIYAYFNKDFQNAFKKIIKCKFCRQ
Method: 10 ug of protein per well preincubated 15 min and incubated 60 min RT.

With “NP-1297: 5-nonyloxytryptamine oxalate conjugated to a siRNA against mRNA for Ataxin-I (SEQ ID NO: 9/10) (chain 1 GAUCUAACGUGGGCAAGUATT; chain 2 UACUUGCCCACGUUAGAUCTT; 5-nonyloxytryptamine conjugated, attachment position not given here)” the “Decrease of optical density (Ataxin-1 probe) in the Purkinje cells layer normalized against PBS” value (Ataxin-I mRNA) was 48%±5.
c1ccc(Cn2c(N3CCNCC3)nc3ccccc32)cc1 [Lerisetron, 1-benzyl-2-piperazin-1-yl-1H-benzimidazole] was tested, and the IC50 (5HT3) was 7 nM.
With Nc1ccc(CCN2CCN(c3cccc(C(F)(F)F)c3)CC2)cc1 [LY-165,163, 1-[2-(4-aminophenyl)ethyl]-4-(3-trifluoromethylphenyl)-piperazine] the pIC50 (human 5HT1A receptor) was 8.96.
